Test results as given in PubChem BioAssay (NCI).
“And” between values parts separate entries of the source, which are not always exact repeats. Identical values can stand only once.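 Interpolation was linear, between the two tested concentrations surrounding the appropriate level; five concentrations were tested over 48 hours in 96-well plates. GI50: concentration for 50% inhibition of growth. Definition used: TGI = concentration required for complete inhibition of growth.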

What was measured:
Assay in all cases: NCI tumour cell line growth inhibition, 48 h
[1] = system: XF 498 CNS
[2] = system: SNB-78 CNS
[3] = system: RXF-631 renal
[4] = system: DMS 114 small cell lung
[5] = system: KM20L2 colon
[6] = system: LXFL 529 NSCLC
[7] = system: MDA-N
[8] = system: M19-MEL melanoma
[9] = system: HOP-18 NSCLC
[10] = system: SN12K1 renal
[11] = system: P388/ADR leukemia
[12] = system: P388 leukemia

Structure (SMILES)	TGI [1]	TGI [2]	TGI [3]	TGI [4]	TGI [5]	TGI [6]	TGI [7]	TGI [8]	TGI [9]	other results
Cc1ccc(S(=O)(=O)N/N=C(/c2nc3ccc([N+](=O)[O-])cc3[nH]c2=O)C(O)c2ccc(C(O)/C(=N\NS(=O)(=O)c3ccc(C)cc3)c3nc4ccc([N+](=O)[O-])cc4[nH]c3=O)cc2)cc1 (stereo not drawn)	> 100 µM	> 100 µM	> 100 µM	> 100 µM	> 100 µM	> 100 µM	–	–	–	–
CCOC(=O)COc1ccc2c(C)cc(=O)oc2c1	–	–	–	–	–	–	> 100 µM	–	–	–
CC(C)(C)C(C#N)(C#N)c1ccc(C(C#N)(C#N)C(C)(C)C)nn1	> 100 µM	> 100 µM	> 100 µM	> 100 µM	> 100 µM	> 100 µM	–	> 100 µM	–	–
ClC(Cl)[Si]12OCCN(CCO1)CCO2	–	> 100 µM	> 100 µM	> 100 µM	–	> 100 µM	–	–	> 100 µM	–
CCc1nc(N)nc(N)c1-c1ccc(N2CCNCC2)cc1	–	–	–	–	–	–	> 100 µM	–	–	–
C=C1C(=O)OC2/C=C(/C)C(OC(C)=O)C/C=C(\C)C(OC(=O)C3(C)OC3C)C(O)C12 (stereo not drawn)	–	–	–	–	–	–	> 100 µM	–	–	–
NS(=O)(=O)OCCCCCCCOS(N)(=O)=O	112 µM	2020 µM	–	669 µM	1470 µM	–	1210 µM	1300 µM	2350 µM	TGI [10]: 605 µM; TGI [11]: 2060 µM; TGI [12]: 1300 µM
COC(=O)C=Cc1ccc2nncnc2c1 (mixture of isomers)	–	–	–	–	–	–	46.1 µM	–	–	–
Brc1ccc2ns[s+]c2c1	> 100 µM	> 31.6 µM	> 100 µM	> 100 µM	> 100 µM	> 100 µM	–	> 100 µM	> 100 µM	–
Nc1ncnc2c1ncn2C1OC(CO)C(O)C1N (stereo not drawn)	–	–	–	–	–	–	> 100 µM	–	–	–
O=C(Nc1nc2c(ncn2C2OC(CO)C(O)C2O)c(=O)[nH]1)c1ccccc1 (stereo not drawn)	> 100 µM	> 100 µM	> 100 µM	–	> 100 µM	> 100 µM	–	> 100 µM	> 100 µM	–
C=CCc1cc(OC)c2c(c1)C(OC)CC(c1ccc(OC)c(OC)c1)O2 (stereo not drawn)	> 100 µM	> 100 µM	> 100 µM	> 100 µM	> 100 µM	> 100 µM	–	> 100 µM	–	–
CC(=O)NNc1nc(C)c(C(=O)NNC(=O)C(=O)Nc2ccc(Cl)cc2Cl)s1	> 100 µM	> 100 µM	–	> 100 µM	> 100 µM	> 100 µM	–	> 100 µM	–	–
O=P(O)(O)C1(P(=O)(O)O)CC1	> 100 µM	> 100 µM	–	> 100 µM	> 100 µM	> 100 µM	–	> 100 µM	–	–
Cc1c(/C=N/N(C)C)oc2c1cc(O)c1ncccc12	> 100 µM	–	–	8.59 µM	> 100 µM	> 100 µM	–	–	16 µM	–
O=S(=O)(c1cnccc1N1CCN(CCO)CC1)N1CCCC1	–	–	–	–	–	–	> 100 µM	–	–	–
CN(C)C(=S)SCC(=O)Nc1ccccc1	–	–	–	–	–	–	> 100 µM	–	–	–
CCOC(=O)C1(C)CCCCC(=O)N1 (stereo not drawn)	> 100 µM	> 100 µM	> 100 µM	> 100 µM	> 100 µM	> 100 µM	–	> 100 µM	> 100 µM	–
CC1(c2ccc(Cl)cc2)C2C(=O)NC(=O)C1C(=O)NC2=O (stereo not drawn)	> 100 µM	> 100 µM	–	–	> 100 µM	> 100 µM	–	> 100 µM	–	–
CC(=O)NC(CC(C)C)C(=O)NC(Cc1ccccc1)C(=S)N1CCCC1 (stereo not drawn)	> 100 µM	–	> 100 µM	> 100 µM	> 100 µM	> 100 µM	–	> 100 µM	–	–
COC(=O)CSSCc1ccc([N+](=O)[O-])cc1	–	–	–	–	–	–	34.7 µM	–	–	–
Nc1c(Cl)ncnc1NCCCNc1ncnc(Cl)c1N	> 100 µM	> 100 µM	–	> 100 µM	> 100 µM	> 100 µM	–	> 100 µM	> 100 µM	–

Structure (SMILES)	TGI [1]	TGI [2]	TGI [3]	TGI [4]	TGI [5]	TGI [6]	TGI [7]	TGI [8]	TGI [9]	other results
CC1=C(C(=O)Nc2cc(F)c(F)cc2F)C(c2ccc([N+](=O)[O-])cc2)C(C(=O)Nc2cc(F)c(F)cc2F)=C(C)N1	–	> 100 µM	–	> 100 µM	> 100 µM	> 100 µM	–	> 100 µM	–	–
O=c1[nH]cnc2c1nnn2CCCCCCCCCCCCn1nnc2c(=O)[nH]cnc21	–	48 µM	–	39.4 µM	> 100 µM	> 100 µM	> 100 µM	> 100 µM	> 100 µM	–
CC(=O)[O][Hg][c]1c(C)c(C)cc(C)c1C	–	–	–	–	–	–	2.08 µM	–	–	GI50 [7]: 0.83 µM
CC1=C(C(=O)Nc2ccc(Cl)c(C(=O)OC(C)C)c2)SCCO1	> 91.3 µM	> 100 µM	–	–	73.9 µM	–	–	75.5 µM	> 100 µM	TGI [10]: 63.1 µM; TGI [11]: 46.4 µM; TGI [12]: 54.2 µM
CC(=O)C1=C(O)C2C3c4c[nH]c5cccc(c45)CC3C(C)(C)N2C1=O (stereo not drawn)	> 100 µM	> 100 µM	–	> 100 µM	> 100 µM	> 100 µM	–	> 100 µM	75.8 µM	–
COc1ccc(/C=C/C(=O)c2sc(-n3nc(-c4ccccc4)cc3-c3ccccc3)nc2C)cc1	> 100 µM	–	> 100 µM	> 100 µM	> 100 µM	> 100 µM	–	> 100 µM	> 100 µM	GI50 [8]: > 100 µM; GI50 [3]: > 100 µM; GI50 [9]: > 100 µM; GI50 [6]: > 100 µM
NC(=O)NC1C(C(N)=O)N(Cc2ccccc2)C(=O)N1Cc1ccccc1 (stereo not drawn)	> 100 µM	> 100 µM	> 100 µM	> 100 µM	> 100 µM	> 100 µM	–	> 100 µM	> 100 µM	–
COc1cc(CCc2ccc(N)cc2)cc(OC)c1OC	> 100 µM	85 µM	> 100 µM	83.8 µM	> 100 µM	> 100 µM	–	> 100 µM	> 100 µM	–
CSc1ccc2c(c1)C(N1CCN(C)CC1)Cc1ccccc1S2 (stereo not drawn)	–	–	–	–	–	–	12.1 µM	–	–	–
Nc1ncnc2c1ncn2C1CC(OCc2ccccc2[N+](=O)[O-])C(CO)O1 (stereo not drawn)	> 50 µM	> 50 µM	–	47.2 µM	> 50 µM	> 50 µM	–	48.5 µM	> 50 µM	–
CCCCCCCCCCCCCC[C@@H](O)[C@H]1CC[C@H]([C@H]2CC[C@H]([C@H](O)CCCCCC[C@@H](O)CC3=C[C@H](C)OC3=O)O2)O1	–	–	–	–	–	–	6.48 µM and > 25 µM	–	–	GI50 [7]: > 25 µM
CN(c1ccccc1)c1c(Cl)c(=O)oc2c1ccc1occc12	–	> 100 µM	> 100 µM	> 100 µM	> 100 µM	> 100 µM	–	> 100 µM	> 100 µM	–
CN1c2ccccc2N(C(=O)c2ccccc2)C(CC(=O)O)c2cccn21 (stereo not drawn)	> 100 µM	–	> 100 µM	> 100 µM	> 100 µM	> 100 µM	–	> 100 µM	> 100 µM	–
Cc1cc(N2CCN(C)CC2)n2nc(-c3ccc(Cl)cc3)nc2n1	–	–	–	–	–	–	> 100 µM	–	–	–
CSC(=Nc1ccccc1)/N=C(\SCc1ccccc1)N(C)C	2.66 µM	4.16 µM	3.12 µM	3.77 µM	–	1.79 µM	2.03 µM	3.36 µM	2.1 µM	–
CC(SC(=O)Nc1ccc(N=Nc2ccccc2)cc1)C(=O)O (stereo not drawn)	–	> 100 µM	–	> 100 µM	> 100 µM	> 100 µM	–	–	–	–
O=C(NNc1ccccc1)/C(=C/c1ccc2c(c1)OCO2)NC(=O)c1ccccc1	> 100 µM	> 100 µM	–	–	> 100 µM	> 100 µM	–	–	> 100 µM	–
CC(=O)OC1COC(n2c(=S)n(-c3ccccc3)c(=O)c3ccccc32)C(OC(C)=O)C1OC(C)=O (stereo not drawn)	> 100 µM	> 100 µM	> 100 µM	> 100 µM	> 100 µM	> 100 µM	–	–	> 100 µM	–
c1ccc2c(c1)cc1n2CC2CN=NC12 (stereo not drawn)	–	> 100 µM	> 100 µM	–	> 100 µM	> 100 µM	–	> 100 µM	–	–
CC1(C)C(=O)C(C)(C)C1=S	> 100 µM	–	–	> 100 µM	> 100 µM	> 100 µM	–	> 100 µM	–	–
CCSc1c2ccccc2c(-c2nc(F)nc(F)n2)n1CCc1ccccc1	> 100 µM	> 100 µM	> 100 µM	> 100 µM	> 100 µM	> 100 µM	–	> 100 µM	–	–
